Experimental data as given in patent US7456018B2, “Human hepatoma lines, methods for obtaining same and uses thereof” (priority 2001, dated 2008).
“Also recorded” adds a separate entry of the source.

How the values were obtained:
HepaRG cells [1] = assay: Biliary/hepatocyte route differentiation of HepaRG cells, in situ marking (indirect immunohistochemistry); assay type: cell-based, human; set-up: Cytokeratin 19 expression: key: −/+: weakly positive; +: positive; ++: highly positive; details: HepaRG cells treated with 2% DMSO or 3.75 mM sodium butyrate; for Albumin expression: key: −/+: weakly positive; +: positive; ++: highly positive; for Cytokeratin 7 expression: key: −/+: weakly positive; +: positive; ++: highly positive; for α1 chain expression: key: −/+: weakly positive; +: positive; ++: highly positive; for α6 chain expression: key: −/+: weakly positive; +: positive; ++: highly positive; for γ-glutamyl transferase expression: key: −/+: weakly positive; +: positive; ++: highly positive
Experimental: HepaRG cells were separated, diluted to ⅕ in Williams' E medium to which 5 μg/ml of insulin, 100 U/ml of penicillin, 100 μg/ml of streptomycin, 510-5M of hydrocortisone hemisuccinate, 2 mM of L-glutamine and 10% FCS were added, then redistributed into wells with a plastic support. Four culture conditions were produced: • HepaRG cells were treated with 3.75 mM sodium butyrate in the maintenance medium as from the day following subculture according to the protocol described by Blouin et al. (1995, Specialization switch in differentiating embryonic rat liver progenitor cells in response to sodium butyrate, Exp. cell res., 217: 22-33). The medium is then replenished every 2-3 days, • the HepaRG cells were treated 5 days after subculture by 3.75 mM sodium butyrate or 2% DMSO. The medium was replenished every day for 5 days, • the HepaRG cells were treated at strong confluence by 3.75 mM sodium butyrate; the medium was replenished every 2-3 days, • the HepaRG cells were seeded on a plastic support or monolayer of rat primitive biliary epithelial cells in MEM alpha medium complemented with L-glutamine (2 mM), i-inositol (0.2 mM), folic acid ([…]), β-mercaptoethanol (10^−4 M), transferrin 200 μg/ml, 12.5% FCS and 12.5% horse serum. In certain situations, cytokines such as LIF, IL-3, SCF or G-CSF were added to the medium. This medium was replenished every 2-3 days. Indirect Immunohistochemistry
The cells after washing with PBS are fixed by a solution of 4% paraformaldehyde buffered by 0.1 M sodium cacodylate at pH 7.4 for 20 minutes at 4° C. They are then preserved in a PBS buffer until the time of the analysis.
The specific sites are saturated for 45 minutes with PBS containing 10% FCS. The samples are then treated with primary antibodies for an hour at ordinary temperature in PBS containing 0.05% saponin. After 3 washings in PBS containing 0.05% saponin, the samples are incubated with the second antibody coupled to peroxydase.
The morphological modifications observed in the presence of sodium butyrate are correlated to phenotypical changes (Blouin et al. 1995). We used four markers of differentiation towards the biliary route, γ-glutamyl transferase, the α6 chain of integrins and the cytokeratins 7 and 19 which normally disappear when the cells are directed towards the hepatocyte route. For differentiation towards the hepatocyte route, we looked for an increase in the expression of albumin and a reduction in the expression of the al chain of the integrins.

HepaRG cells [2] = assay: Toxicity of DMSO to HepaRG cells without corticoid; assay type: cell-based, human; details: 2% of DMSO, HepaRG cells in the absence of corticoid
Experimental: A first series of experiments was carried out in order to study the effects of the absence of the corticoid on cells having always been maintained in its presence. In FIG. 9A, the HepaRG cells at passage 13, were kept for 2 additional passages either in the continuous presence of hydrocortisone (growth: HN), or in the absence of hydrocortisone (growth: HO). They were then induced to differentiate (diff.) for 3 weeks in the absence of hydrocortisone (HO) or in the presence of hydrocortisone 5×10^−5 M (HN), and in the presence of different concentrations of DMSO.
The withdrawal of the corticoid was carried out at confluence, i.e. at the time when the cells begin their differentiation.
The cells are kept in a culture medium without corticoid and their ability to carry out differentiation is tested after 2 (FIG. 9A) and 10 passages (FIG. 9B).

HBV [3] = assay: Infectability of HepaRG cells by HBV according to culture/differentiation medium, HbsAg secretion; assay type: cell-based, hepatitis B virus
Experimental: The cells used for the infection are cells having been cultured according to the conditions defined in Example 1 (permanent presence of 5.10^−5M of hydrocortisone hemisuccinate) and having been maintained for a week at confluence, then for 2 weeks in the same medium with 2% of DMSO added.
These cells are incubated with the infectious source, diluted 10 times, in the culture medium with 4% of PEG 8000 (Sigma) added, for 20 hours at 37° C. The second part of this HBV infection protocol was established by Gripon et al., 1993, Virology, 192: 534-540.
At the end of the incubation, the cells are washed three times with culture medium and maintained in the presence of 2% of DMSO and 5.10^−5 M of hydrocortisone hemisuccinate until they are used.
The HBs antigen was detected in the medium using the ELISA kit (Monolisa AgHBs plus®) from Biorad Laboratories. The results are expressed in pg/ml of supernatant.
The ability of the HepaRG cells to be infected was studied as a function of their degree of differentiation. Using the methods described in Examples 1 and 2, the cell differentiation programme was modified.
A first series of infection was carried out on cells continually maintained in the presence of corticoid only, then in the presence of corticoid and different concentrations of DMSO, in order to induce different stages of differentiation.
This correlation was confirmed by a series of experiments carried out on cells infected at confluence (before their differentiation) then placed under optimum conditions in order to induce their differentiation.
Finally, the effectiveness of an infection carried out on undifferentiated cells multiplying actively was compared with that on cells with arrested growth and well-differentiated.

HBV [4] = assay: HBs antigen in culture supernatant of HBV-infected HepaRG cells treated by 3TC (ELISA); assay type: cell-based, hepatitis B virus; details: after 8 days of treatment by 3TC, all doses
Experimental: (§1) The cells are maintained and infected according to the protocols of Examples 1 and 5.
The antiviral treatment by 3TC is administered from the 8th day to the 15th day following the infection of the HepaRG cells, at final concentrations of 0.1 and 10 μM in the culture medium. A complete replenishment of the medium is carried out every two days. The supernatants are stored at −20° C. and the cell pellets at −80° C.
The viral antigen (HBs) was detected in the culture supernatant using the commercial ELISA test ETI-MAK-3® (SORIN).

HBV [5] = assay: Antiviral activity of 3TC on HBV-infected HepaRG cells, viral DNA by Amplicor-Monitor test; assay type: cell-based, hepatitis B virus; details: day 8 to 15 after infection, vs infected non-treated control
Experimental: as §1
[…] A complete replenishment of the medium is carried out every two days. The supernatants are stored at −20° C. and the cell pellets at −80° C.
The viral DNA present in the culture supernatant could be detected and quantified by the Amplicor-Monitor test (ROCHE). The results are expressed as number of viral particles/ml. For the analysis of intracellular viral DNA, the cells were separated with trypsin and stored at −80° C. The total DNA was isolated according to the protocol described previously (Zoulim et al., 1998, Drug therapy for chronic hepatitis B virus replication. J. Hepatol. 29:151-168).

HCV = assay: Sensitivity of HCV replication in infected HepaRG cells to interferon α, viral RNA by RT-PCR; assay type: cell-based; details: 5 U.I./ml
Experimental: These cells are incubated for 48 hours at 37° C. with the infectious source, diluted 10 times, in the culture medium devoid of FCS and optionally with PEG 8000 (Sigma) added.
The replicative forms of the intracellular viral RNAs were isolated in all the cell lysates. The cells are recovered after separation with trypsin, then the total RNA is extracted using the High Pure RNA Isolation kit (Roche). The quantity of total RNA extracted is estimated by optical density in order to standardize the different samples. The quality and homogeneity of the RNAs are examined by visualizing the ribosomic RNAs (rRNA: 28S and 18S) on a 1% agarose gel stained with ethidium bromide.
The RNAs of the viral particles are extracted from the culture supernatant using the High Pure viral RNA kit (Roche).
By retrotranscription (RT), the complementary DNA (cDNA) of the viral RNAs of positive polarity is synthesized from a specific prime hybridizing at 5′ of the region which codes for the viral capsid protein. This oligonucleotide (5′-[…]-3′), designated as SEQ ID NO:1, derived from that described by Martell et al., 1999, Journal of Clinical Microbiology, 37: 327-332 , designated C-342. The cDNA is then amplified by the “Polymerase Chain Reaction” (PCR) technique using two primers hybridizing in the 5′ non-translated region of the viral genome. The primers used are as follows: the sense oligonucleotide (5′-TGAGTGTCGTRCAGCCTCC-3′), designated as SEQ ID NO:2, and the antisense oligonucleotide (5′-[…]-3′), designated as SEQ ID NO:3, which corresponds to that conceived by Mercier et al., 1999, Journal of Virological Methods, 77 1-9, designated NCR-3. The amplification product (amplicon of 190 pb) is visualized on a 2% agarose gel stained with ethidium bromide. A marker of molecular weight of DNA (M) is also deposited in order to verify the identity of the amplicon by its size. The effectiveness of the different stages is always controlled by detecting the viral RNA present in a standard (T+), which corresponds to a diluted serum, originating from an infected patient. […]

## C[S+](C)[O-] [DMSO]
HepaRG cells [1]
  Albumin expression: ++
  α1 chain expression: +
  γ-glutamyl transferase expression: −/+
HepaRG cells [2]
  Toxicity of the addition of DMSO: so toxic that its use is impossible; also recorded: highly toxic
HBV [3]; DMSO 1% in differentiation medium after day 17, infection on day 15, supernatant 47 days after seeding
  HbsAg secretion: 70 pg/mL
HBV [3]; DMSO 1% in differentiation medium after day 17, infection on day 28, supernatant 47 days after seeding
  HbsAg secretion: 214 pg/mL
HBV [3]; DMSO 2% in differentiation medium after day 17, infection on day 15, supernatant 47 days after seeding
  HbsAg secretion: 79 pg/mL
HBV [3]; DMSO 2% in differentiation medium after day 17, infection on day 28, supernatant 47 days after seeding
  HbsAg secretion: >2000 pg/mL

## Nc1ccn([C@@H]2CS[C@H](CO)O2)c(=O)n1 [3TC]
HBV [4]
  HBs antigen in the culture supernatant: constant whatever the dose and equal to the non-treated control
HBV [5]; 3TC 0.1 μM
  Inhibition (quantity of viral DNA): 69
HBV [5]; 3TC 1 μM
  Inhibition (quantity of viral DNA): 98
HBV [5]; 3TC 10 μM
  Inhibition (quantity of viral DNA): 100

## interferon α: antiviral cytokine (Introna®, Schering-Plough, France)
HCV; after four days of incubation, Day 10 to Day 12
  Extracellular viral RNA, kinetics: no extracellular viral RNA is detected
HCV; six days of treatment, 12th day after infection
  Viral RNA signal in the extracellular medium: complete disappearance of the signal
HCV; six days of treatment, 12th day after infection, serum No. 4
  Drop of the intracellular viral RNA signal: more than 60%

## CCCC(=O)[O-].[Na+] [Sodium butyrate, sodium butyrate]
HepaRG cells [1]
  Albumin expression: −/+
  Cytokeratin 7 expression: +
  Cytokeratin 19 expression: ++
  α1 chain expression: −/+
  α6 chain expression: +
  γ-glutamyl transferase expression: ++

## hydrocortisone hemisuccinate [HN]
HBV [3]; culture HN, HN after 17th day, infection D3 (growth), 47 days after seeding
  HbsAg secretion: 33 pg/mL
HBV [3]; culture HN, HN after 17th day, infection D5 (growth), 47 days after seeding
  HbsAg secretion: 37 pg/mL
HBV [3]; culture HN, HN after 17th day, infection D10 (confluence), 47 days after seeding
  HbsAg secretion: 93 pg/mL
HBV [3]; culture HN, HN with 2% of DMSO after 17th day, infection D3 (growth), 47 days after seeding
  HbsAg secretion: 41 pg/mL
HBV [3]; culture HN, HN with 2% of DMSO after 17th day, infection D5 (growth), 47 days after seeding
  HbsAg secretion: 84 pg/mL
HBV [3]; culture HN, HN with 2% of DMSO after 17th day, infection D10 (confluence), 47 days after seeding
  HbsAg secretion: 171 pg/mL
